PubChem BioAssay (NCI)
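Tested at 5 concentrations; 48 h exposure; 96-well plates; endpoints linearly interpolated, else capped at highest concentration. GI50 marks 50% less growth. TGI denotes the concentration required for complete inhibition of growth.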

Key:
Experiment in all cases: NCI-60 cell line screen, 48 h
786-0 renal = test system: 786-0 renal
A498 renal = test system: A498 renal
A549 NSCLC = test system: A549 NSCLC
ACHN renal = test system: ACHN renal
BT-549 breast = test system: BT-549 breast
CAKI-1 renal = test system: CAKI-1 renal
CCRF-CEM leukemia = test system: CCRF-CEM leukemia
COLO 205 colon = test system: COLO 205 colon
DU-145 prostate = test system: DU-145 prostate
EKVX NSCLC = test system: EKVX NSCLC
HCC-2998 colon = test system: HCC-2998 colon
HCT-116 colon = test system: HCT-116 colon
HCT-15 colon = test system: HCT-15 colon
HL-60(TB) leukemia = test system: HL-60(TB) leukemia
HOP-62 NSCLC = test system: HOP-62 NSCLC
HOP-92 NSCLC = test system: HOP-92 NSCLC
HS 578T breast = test system: HS 578T breast
HT29 colon = test system: HT29 colon
IGROV1 ovarian = test system: IGROV1 ovarian
K-562 leukemia = test system: K-562 leukemia
KM12 colon = test system: KM12 colon
LOX IMVI melanoma = test system: LOX IMVI melanoma
M14 melanoma = test system: M14 melanoma
MALME-3M melanoma = test system: MALME-3M melanoma
MCF7 breast = test system: MCF7 breast
MDA-MB-231 breast = test system: MDA-MB-231 breast
MDA-MB-435 = test system: MDA-MB-435
MOLT-4 leukemia = test system: MOLT-4 leukemia
NCI-H226 lung = test system: NCI-H226 lung
NCI-H460 lung = test system: NCI-H460 lung
NCI-H522 lung = test system: NCI-H522 lung
NCI/ADR-RES ovarian = test system: NCI/ADR-RES ovarian
OVCAR-3 ovarian = test system: OVCAR-3 ovarian
OVCAR-4 ovarian = test system: OVCAR-4 ovarian
OVCAR-5 ovarian = test system: OVCAR-5 ovarian
OVCAR-8 ovarian = test system: OVCAR-8 ovarian
PC-3 prostate = test system: PC-3 prostate
RPMI-8226 leukemia = test system: RPMI-8226 leukemia
RXF 393 renal = test system: RXF 393 renal
SF-268 CNS = test system: SF-268 CNS
SF-295 CNS = test system: SF-295 CNS
SF-539 CNS = test system: SF-539 CNS
SK-MEL-2 melanoma = test system: SK-MEL-2 melanoma
SK-MEL-28 melanoma = test system: SK-MEL-28 melanoma
SK-MEL-5 melanoma = test system: SK-MEL-5 melanoma
SK-OV-3 ovarian = test system: SK-OV-3 ovarian
SN12C renal = test system: SN12C renal
SNB-19 CNS = test system: SNB-19 CNS
SR leukemia = test system: SR leukemia
SW-620 colon = test system: SW-620 colon
T-47D breast = test system: T-47D breast
TK-10 renal = test system: TK-10 renal
U251 CNS = test system: U251 CNS
UACC-257 melanoma = test system: UACC-257 melanoma
UACC-62 melanoma = test system: UACC-62 melanoma
NCI-H23 lung = test system: NCI-H23 lung
SNB-75 CNS = test system: SNB-75 CNS
UO-31 renal = test system: UO-31 renal

For COC(=O)Nc1nc2ccc(S(=O)(=O)SC)cc2[nH]1, the TGI (786-0 renal) was 16.9 µM, the TGI (A498 renal) was 99.7 µM and the TGI (A549 NSCLC) was greater than 100 µM. The TGI (ACHN renal) was 23.9 µM, the TGI (BT-549 breast) was 22.7 µM and the TGI (CAKI-1 renal) was greater than 100 µM. It also gave a TGI (CCRF-CEM leukemia) of 61.4 µM, a TGI (COLO 205 colon) greater than 100 µM and a TGI (DU-145 prostate) of 27.1 µM. It also gave a TGI (EKVX NSCLC) of 62.5 µM, a TGI (HCC-2998 colon) of 42.4 µM and a TGI (HCT-116 colon) of 24.5 µM. The TGI (HCT-15 colon) was 19.4 µM, the TGI (HL-60(TB) leukemia) was 8.11 µM and the TGI (HOP-62 NSCLC) was greater than 100 µM. It also gave a TGI (HOP-92 NSCLC) of 28 µM, a TGI (HS 578T breast) greater than 100 µM and a TGI (HT29 colon) of 11.1 µM. It also gave a TGI (IGROV1 ovarian) of 15.3 µM, a TGI (K-562 leukemia) greater than 100 µM and a TGI (KM12 colon) greater than 100 µM. The TGI (LOX IMVI melanoma) was 22.1 µM, the TGI (M14 melanoma) was 18.4 µM and the TGI (MALME-3M melanoma) was 25.6 µM. For the same compound, the TGI (MCF7 breast) was 27 µM, the TGI (MDA-MB-231 breast) was 40.1 µM and the TGI (MDA-MB-435) was 12.2 µM. For the same compound, the TGI (MOLT-4 leukemia) was greater than 100 µM, the TGI (NCI-H226 lung) was greater than 100 µM and the TGI (NCI-H460 lung) was greater than 100 µM. The TGI (NCI-H522 lung) was greater than 100 µM, the TGI (NCI/ADR-RES ovarian) was 82.4 µM and the TGI (OVCAR-3 ovarian) was greater than 100 µM. It also gave a TGI (OVCAR-4 ovarian) of 84.5 µM, a TGI (OVCAR-5 ovarian) of 45.1 µM and a TGI (OVCAR-8 ovarian) of 30.6 µM. The TGI (PC-3 prostate) was 16.2 µM, the TGI (RPMI-8226 leukemia) was greater than 100 µM and the TGI (RXF 393 renal) was 17.9 µM. For the same compound, the TGI (SF-268 CNS) was greater than 100 µM, the TGI (SF-295 CNS) was greater than 100 µM and the TGI (SF-539 CNS) was 39.3 µM. The TGI (SK-MEL-2 melanoma) was 26.9 µM, the TGI (SK-MEL-28 melanoma) was 25.3 µM and the TGI (SK-MEL-5 melanoma) was greater than 100 µM. It also gave a TGI (SK-OV-3 ovarian) of 43 µM, a TGI (SN12C renal) of 37.1 µM and a TGI (SNB-19 CNS) greater than 100 µM. The TGI (SR leukemia) was 62.8 µM, the TGI (SW-620 colon) was 25.2 µM and the TGI (T-47D breast) was 30.4 µM. For the same compound, the TGI (TK-10 renal) was 22.1 µM, the TGI (U251 CNS) was 29.9 µM and the TGI (UACC-257 melanoma) was 45.5 µM. For the same compound, the TGI (UACC-62 melanoma) was 22.5 µM.
CCOC(=O)C1CCN(S(=O)(=O)/N=C2/NC(=O)NC2=C(Cl)Cl)CC1 gave a GI50 (786-0 renal) of 0.545 µM, a TGI (786-0 renal) of 6.64 µM and a GI50 (A498 renal) of 2.65 µM. It also gave a TGI (A498 renal) of 12.1 µM, a GI50 (A549 NSCLC) of 4.82 µM and a TGI (A549 NSCLC) of 17.7 µM. For the same compound, the GI50 (ACHN renal) was 1.83 µM, the TGI (ACHN renal) was 3.32 µM and the GI50 (BT-549 breast) was 1.68 µM. It also gave a TGI (BT-549 breast) of 3.65 µM, a GI50 (CCRF-CEM leukemia) of 1.23 µM and a TGI (CCRF-CEM leukemia) of 3.16 µM. It also gave a GI50 (COLO 205 colon) of 2.08 µM, a TGI (COLO 205 colon) of 3.83 µM and a GI50 (DU-145 prostate) of 2.37 µM. For the same compound, the TGI (DU-145 prostate) was 15.1 µM, the GI50 (EKVX NSCLC) was 1.99 µM and the TGI (EKVX NSCLC) was 4.79 µM. It also gave a GI50 (HCC-2998 colon) of 2.05 µM, a TGI (HCC-2998 colon) of 3.67 µM and a GI50 (HCT-116 colon) of 0.736 µM. It also gave a TGI (HCT-116 colon) of 2.48 µM, a GI50 (HCT-15 colon) of 1.82 µM and a TGI (HCT-15 colon) of 3.56 µM. For the same compound, the GI50 (HL-60(TB) leukemia) was 1.74 µM, the TGI (HL-60(TB) leukemia) was 4.34 µM and the GI50 (HOP-62 NSCLC) was 0.971 µM. The TGI (HOP-62 NSCLC) was 16.5 µM, the GI50 (HOP-92 NSCLC) was 1.62 µM and the TGI (HOP-92 NSCLC) was 3.29 µM. For the same compound, the GI50 (HS 578T breast) was 9.14 µM, the TGI (HS 578T breast) was 65.3 µM and the GI50 (HT29 colon) was 2.2 µM. For the same compound, the TGI (HT29 colon) was 4.3 µM, the GI50 (IGROV1 ovarian) was 1.91 µM and the TGI (IGROV1 ovarian) was 3.93 µM. For the same compound, the GI50 (K-562 leukemia) was 1.82 µM, the TGI (K-562 leukemia) was 5.99 µM and the GI50 (KM12 colon) was 0.254 µM. The TGI (KM12 colon) was 10.5 µM, the GI50 (M14 melanoma) was 1.82 µM and the TGI (M14 melanoma) was 3.6 µM. For the same compound, the GI50 (MALME-3M melanoma) was 1.7 µM, the TGI (MALME-3M melanoma) was 3.48 µM and the GI50 (MCF7 breast) was 0.33 µM. The TGI (MCF7 breast) was 22 µM, the GI50 (MDA-MB-231 breast) was 1.94 µM and the TGI (MDA-MB-231 breast) was 3.54 µM. For the same compound, the GI50 (MDA-MB-435) was 1.93 µM, the TGI (MDA-MB-435) was 4.66 µM and the GI50 (MOLT-4 leukemia) was 1.88 µM. For the same compound, the TGI (MOLT-4 leukemia) was 4.46 µM, the GI50 (NCI-H226 lung) was 2.86 µM and the TGI (NCI-H226 lung) was 9.94 µM. For the same compound, the GI50 (NCI-H23 lung) was 2.12 µM, the TGI (NCI-H23 lung) was 4.38 µM and the GI50 (NCI-H460 lung) was 3.19 µM. The TGI (NCI-H460 lung) was 11.4 µM, the GI50 (NCI-H522 lung) was 2.22 µM and the TGI (NCI-H522 lung) was 4.28 µM. The GI50 (NCI/ADR-RES ovarian) was 4.36 µM, the TGI (NCI/ADR-RES ovarian) was 41.4 µM and the GI50 (OVCAR-3 ovarian) was 1.77 µM. The TGI (OVCAR-3 ovarian) was 3.29 µM, the GI50 (OVCAR-5 ovarian) was 3.6 µM and the TGI (OVCAR-5 ovarian) was 14.7 µM. The GI50 (OVCAR-8 ovarian) was 3.76 µM, the TGI (OVCAR-8 ovarian) was 19.9 µM and the GI50 (PC-3 prostate) was 0.621 µM. It also gave a TGI (PC-3 prostate) of 2.58 µM, a GI50 (RPMI-8226 leukemia) of 0.327 µM and a TGI (RPMI-8226 leukemia) of 10.1 µM. It also gave a GI50 (RXF 393 renal) of 1.61 µM, a TGI (RXF 393 renal) of 3.06 µM and a GI50 (SF-268 CNS) of 1.93 µM. The TGI (SF-268 CNS) was 7.43 µM, the GI50 (SF-295 CNS) was 3.56 µM and the TGI (SF-295 CNS) was 14.1 µM. It also gave a GI50 (SF-539 CNS) of 0.525 µM, a TGI (SF-539 CNS) of 4.44 µM and a GI50 (SK-MEL-2 melanoma) of 2.37 µM. For the same compound, the TGI (SK-MEL-2 melanoma) was 7.5 µM, the GI50 (SK-MEL-28 melanoma) was 1.8 µM and the TGI (SK-MEL-28 melanoma) was 3.51 µM. The GI50 (SK-MEL-5 melanoma) was 1.98 µM, the TGI (SK-MEL-5 melanoma) was 4.26 µM and the GI50 (SK-OV-3 ovarian) was 9.94 µM. For the same compound, the TGI (SK-OV-3 ovarian) was 21.7 µM, the GI50 (SN12C renal) was 1.55 µM and the TGI (SN12C renal) was 3.1 µM. The GI50 (SNB-19 CNS) was 1.84 µM, the TGI (SNB-19 CNS) was 5.11 µM and the GI50 (SNB-75 CNS) was 2.86 µM. For the same compound, the TGI (SNB-75 CNS) was 14.1 µM, the GI50 (SR leukemia) was 0.731 µM and the TGI (SR leukemia) was 4.96 µM. It also gave a GI50 (SW-620 colon) of 2.09 µM, a TGI (SW-620 colon) of 4.37 µM and a GI50 (T-47D breast) of 4.41 µM. It also gave a TGI (T-47D breast) of 32.9 µM, a GI50 (TK-10 renal) of 1.25 µM and a TGI (TK-10 renal) greater than 100 µM. It also gave a GI50 (U251 CNS) of 1.9 µM, a TGI (U251 CNS) of 3.47 µM and a GI50 (UACC-257 melanoma) of 2.38 µM. For the same compound, the TGI (UACC-257 melanoma) was 7.24 µM, the GI50 (UACC-62 melanoma) was 1.71 µM and the TGI (UACC-62 melanoma) was 3.27 µM. It also gave a GI50 (UO-31 renal) of 1.73 µM and a TGI (UO-31 renal) of 4.02 µM.
